In the supplement of paper PMC12532568:
Where a name gives a salt, the structure may show the parent alone.

System: Danio rerio larvae Tg(actc1b:ZsGreen-LC3), 3 dpf
Assay: LC3 puncta relative area vs vehicle (mean) (log2 fold change); higher = more autophagy
Conditions: treatment time 16 h
Method: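 Transgenic ZsGreen-LC3 zebrafish larvae (2 dpf) were treated for 16 h with natural bioactives at 10, 50, 100 or 250 µM. Skeletal-muscle LC3 puncta area was measured by high-content imaging with or without 4 h of 100 mM NH4Cl, normalised to vehicle, and reported as the mean log2 fold change over 4–21 larvae.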

| Compound | LC3 puncta (log2) (NH4Cl: + NH4Cl, 10 µM) | LC3 puncta (log2) (NH4Cl: + NH4Cl, 50 µM) | LC3 puncta (log2) (NH4Cl: + NH4Cl, 100 µM) | LC3 puncta (log2) (NH4Cl: + NH4Cl, 250 µM) | LC3 puncta (log2) (NH4Cl: - NH4Cl, 10 µM) | LC3 puncta (log2) (NH4Cl: - NH4Cl, 50 µM) | LC3 puncta (log2) (NH4Cl: - NH4Cl, 100 µM) | LC3 puncta (log2) (NH4Cl: - NH4Cl, 250 µM) |
| --- | --- | --- | --- | --- | --- | --- | --- | --- |
| O=c1oc2c(O)c(O)cc3c(=O)oc4c(O)c(O)cc1c4c23 [Ellagic acid] | 0.705 | 0.347 | 0.0739 | 0.0325 | 0.154 | -0.476 | -0.223 | 0.00958 |
| O=C1C[C@H](O)[C@@H](CO)O1 [2-deoxyribonolactone] | 0.749 | 0.4 | 0.746 | 0.616 | 0.195 | -0.131 | 0.251 | -0.0832 |
| CC(O)CC(=O)O (stereo not given) [3-Hydroxybutyrate] | 0.306 | 0.707 | 0.353 | 0.884 | 0.219 | 0.327 | 0.00999 | 0.0766 |
| CCCCCCCC(=O)O [Octanoic acid] | 0.0521 | 0.079 | 0.553 | – | -0.257 | 0.356 | 0.0532 | – |
| CCCCCCCCCCCCCCCC(=O)O [Palmitic acid] | 0.572 | 0.0741 | 0.0454 | 0.114 | 0.561 | -0.136 | -0.712 | -0.593 |
| CC(=O)OC/C=C(C)/C=C/C=C(C)/C=C/C1=C(C)CCCC1(C)C [Retinol acetate] | 0.716 | 0.504 | 0.948 | 1.18 | 0.543 | 0.167 | 0.303 | 1.12 |
| CCCCC(=O)[O-].[Na+] [Valeric acid sodium salt] | -0.472 | -0.35 | -0.0575 | -0.14 | -0.132 | 0.109 | -0.272 | -0.191 |
| O=C(O)CC(O)C(=O)O (stereo not given) [Malic acid] | 0.364 | 0.607 | 0.449 | 0.554 | -0.0981 | -0.0981 | -0.0374 | -0.0364 |
| C/C1=C2N=C(/C=C3N=C(/C(C)=C4\[N-]C(C(CC(N)=O)C4(C)CCC(=O)NCC(C)OP(=O)([O-])OC4C(CO)OC(n5cnc6cc(C)c(C)cc65)C4O)C4(C)N=C1C(CCC(N)=O)C4(C)CC(N)=O)C(CCC(N)=O)C\3(C)C)C(CCC(N)=O)C/2(C)CC(N)=O.[CH3-].[Co+3] (stereo not given) [Methylcobalamin] | 0.507 | 0.557 | 0.386 | -0.454 | -0.125 | -0.236 | 0.239 | -0.503 |
| N[C@H]1C(O)O[C@H](CO)[C@@H](O)[C@@H]1O (stereo partly drawn) [D-glucosamine] | 0.082 | 0.412 | 0.454 | 0.285 | 0.0603 | 0.0831 | 0.218 | 0.352 |
| NC(=O)c1cccnc1 [Nicotinamide NAM] | 0.821 | 0.328 | 0.663 | 0.606 | -0.196 | -0.178 | 0.12 | -0.631 |
| CCOC(=O)CC(O)(CC(=O)OCC)C(=O)OCC [Triethyl citrate] | 0.559 | 0.524 | 1.06 | 1.44 | 0.227 | 0.572 | 0.551 | 0.957 |
| CC(O)CC(=O)O (racemic) [DL-ß-Hydroxybutyric acid sodium salt] | -0.181 | 0.231 | 0.389 | 0.588 | 0.151 | -0.288 | 0.0785 | 0.0274 |
| C/C1=C2/[N-]C([C@H](CC(N)=O)[C@@]2(C)CCC(=O)NCC(C)OP(=O)([O-])OC2C(O)[C@@H](n3cnc4cc(C)c(C)cc43)O[C@@H]2CO)[C@]2(C)N=C(/C(C)=C3N=C(/C=C4N=C1[C@@H](CCC(N)=O)C\4(C)C)[C@@H](CCC(N)=O)[C@]\3(C)CC(N)=O)[C@@H](CCC(N)=O)[C@]2(C)CC(N)=O.[CH2-]C1O[C@H](n2cnc3c(N)ncnc32)[C@@H](O)[C@H]1O.[Co+3] (stereo not given in full) [Coenzyme B12] | 0.47 | 0.446 | 0.394 | 0.833 | 0.178 | -0.299 | 0.292 | 0.281 |
